Results on eight substances are retold here after US6572860B1, “Immunogenic conjugated polypeptide for treatment of herpes simplex virus” (CEL-SCI Corporation, priority 1997, dated 2003).

“Also recorded” adds a separate entry of the source.

The test system of test [1] is ultraviolet inactivated HSV. In words: Delayed type hypersensitivity (DTH), ear pinna swelling at 24, 48 and 96 hours (FIG. 6). Format: in vivo, Balb/c mice. The note with it: 4 weeks after last immunization, 24, 48 and 96 hours after injection of UV inactivated HSV. As to the method: DTH response was evaluated 4 weeks after the last immunization for the vaccinated mice and three unvaccinated HSV challenged mice which had recovered from disease (Ctrl)
(§1) The protocol used in this experiment differed slightly from that of FIG. 3. Swelling in the right ear pinna was measured by micrometer prior to and at 24, 48 and 96 hours following injection of ultraviolet inactivated HSV and compared to the left ear pinna which had been injected with an uninfected Vero cell extract.

Test [2] deals with HSV-1. Description: Intraperitoneal HSV-1 challenge of vaccinated mice, sub-lethal (<LD50) challenge: symptoms and survival. It is filed as in vivo, Balb/c mice. Conditions: for Symptomatic conditions after viral challenge (symptom score 1-5) / survival after viral challenge: Balb/c mice; for Symptomatic conditions after viral challenge (symptom score 1-5): 2 immunizations of 33 nmoles in Novasome adjuvant, i.p. sub-lethal HSV-1 challenge two weeks later; for survival after viral challenge: sub-lethal i.p. HSV-1 challenge, FIG. 2. From the text: An intraperitoneal challenge model using mice test animal was selected although the predominant presentation of HSV disease is not intraperitoneal since a reproducible course of disease occurs following viral challenge; since the viral challenge dose can be well defined and readily delivered by intraperitoneal injection since the symptoms are readily detected and the course of disease can be qualitatively evaluated; and since the relevant parameter of survival may be readily evaluated. Immune function studies may also be conducted in vitro to further characterize the responses to the test vaccines.
In a series of experiments, groups (12 per group) of 3 week old Balb/c female mice (Taconic Farms, Germantown, N.Y.) are immunized and test bled according to the following schedule. Schedule A: immunizations on day 0 and day 14, and two weeks later nine mice of each group are challenged moderately with a lethal dose (<LD50) of HSV (H129 clinical strain) administered intraperitoneally. In this regard, young Balb/c mice show a defined course of disease which progresses from abdominal swelling, lethargy, paraplegia, to death within 1 to 2 weeks. Therefore, the effectiveness of the vaccinations may be readily determined.
(§2) Each immunization consisted of 33 nmoles of conjugated polypeptide or non-conjugated antigenic peptide H1 (equivalent to 100 μg of the JH1 vaccine). The peptide was mixed with the Novasome liposomal adjuvant (50% v/v). The mice were immunized twice with a two week interval between inoculations. After an additional two weeks, most of the mice received an intraperitoneal challenge with the EKN clinical strain of HSV-1. The mice were evaluated daily for symptoms. […] Blood was obtained from selected mice for ELISA studies prior to immunization and prior to virus challenge. The results are shown in FIG. 1 for symptom (on a daily basis) and in FIG. 2 for survival following vaccination and sub-lethal challenge.
In FIG. 1 symptoms were scored daily as:
(§3) 1. non-specific mild symptoms
(§4) 2. mild swelling of the abdomen
(§5) 3. significant swelling of the abdomen and malaise

In test [3] the test system is ultraviolet inactivated HSV. Description: Delayed type hypersensitivity (DTH), ear pinna swelling at 48 hours (FIG. 3). It is filed as in vivo, Balb/c mice. The note with it: vaccinated unchallenged mice, 4 weeks after last immunization, 48 hours after injection of UV inactivated HSV. As to the method: as §2
DTH response was evaluated 4 weeks after the last immunization for the vaccinated mice and three unvaccinated HSV challenged mice which had recovered from disease (C). Swelling of the right ear pinna was measured at 48 hours following injection of ultraviolet inactivated HSV and compared to the left ear pinna which had been injected with buffer.
In another series of parallel experiments Balb/c female mice (n=9) were vaccinated with the H1 peptide or the JH1, GH1 or LH1 conjugated polypeptides according to the same protocol as for the HSV-1 challenge experiment described above.

Test [4] relates to HSV-1. Description: Intraperitoneal challenge of vaccinated mice with an LD50 of HSV-1: symptoms and survival. Format: in vivo. Conditions: Balb/c mice 4 wk old, n=6, vaccinated twice, challenged with an LD50 of HSV-1; for disease symptoms (symptom score 1-5): FIG. 4; for survival / death: FIG. 5. As to the method:
Similar tests as described above were carried out. Balb/c mice (4 wk old) (n=6) were unvaccinated (NO VAC) or vaccinated and revaccinated two weeks later with the H1 peptide or the indicated conjugated polypeptide. The mice were then challenged two weeks later with an LD50 of HSV-1. Symptoms were scored daily as:
as §3, §4, §5
The results are shown in FIG. 4 for symptoms, in FIG. 5 for survival and in FIG. 6 for DTH.

The subject of test [5] is infected cell extracts. Description: ELISA of serum antibody response, infected cell extracts as antigen (antivirus response). Format: in vivo, C57BI6 mice. The note with it: vaccinated and HSV-1 challenged mice, pooled serum, 2 weeks after virus challenge. As to the method:
(§6) The antibody responses of vaccinated and unchallenged mice, vaccinated and challenged mice and unvaccinated and challenged mice were measured by ELISA assay. Serum was obtained 7 weeks after the initial immunization or 2 weeks after the virus challenge. B1 peptide or infected cell extracts were bound to the ELISA plate as antigen. Results are shown in Table 3 and were taken from pooled serum taken from 2 or 3 mice. The results were corrected for non-specific responses by subtracting the absorbance obtained towards an unrelated antigen.
For orientation: ELISA stands for enzyme-linked immunosorbent assay.

Test [6] deals with ultraviolet inactivated HSV. In words: DTH tests on unchallenged mice immunized with B1 peptides. It is filed as in vivo. The note with it: 3 unchallenged immunized C57BI6 mice. As to the method: as §1
The subject of test [7] is B1 peptide. Description: ELISA of serum antibody response, B1 peptide as antigen. Format: in vivo, C57BI6 mice. As to the method:
as §6

The test system of test [8] is HSV-1. Description: HSV-1 challenge of mice vaccinated with B1 peptides: survival (FIG. 7). It is filed as in vivo. The note with it: C57BI6 mice; for survival (mice surviving of 9): after day 8. From the text:
In order to further establish the effectiveness of conjugated peptides according to this invention as effective vaccines for treatment of herpes simplex virus, the HSV epitope B1, which is a T cell epitope (aa 498-505, SSIEFARL) of glycoprotein B found in both HSV-1 or HSV-2 (see Hanke, et al, J. Virol. 65:1177-86; and Bonneau, et al, Virology 195:62-70) was selected and evaluated with either peptide J or peptide G or peptide L as described above. Namely, the conjugated peptides GB1, JB1 and LB1, as described in Table 1 above, were tested under the same conditions as previously described except that in place of the Balb/c mice, C57BI6 mice were vaccinated with the B1 conjugated peptides or non-conjugated B1 peptide (SEQ ID NO:4). The mice immunized with the B1 peptide or with the conjugated peptide LB1 were not protected from HSV-1 challenge (0 of 9 or 1 of 9 survival, respectively, after day 8) and, in fact the B1 and LB1 immunized mice fared worse than the control (unvaccinated) mice (2 of 9 survival after day 8).

In test [9] the test system is peptide H1. Description: ELISA of antibody responses to peptide H1. It is filed as in vivo. Conditions: immunized Balb/c mice. As to the method: as §2
Where [10] appears, read: 9 challenged mice per group, sub-lethal HSV-1 challenge, FIG. 1.
The mark [11] stands for this setting: vaccinated and unchallenged mice, pooled serum of 2 or 3 mice, 7 weeks after initial immunization.

“DLL KN GER IEK VEG GGL YRT FAG NPR A (SEQ ID NO:10) (DLLKNGERIEKVEGGGLYRTFAGNPRA) [JH1, conjugated polypeptide of Peptide J (β-2 microglobulin), GGG spacer and peptide H1 of ICP27]”: in test [1], the “DTH response (redness and swelling of ear pinna)” value is “DTH was observed on each day”. In test [2] (setting [10]), the “number of mice showing significant symptoms” value is recorded as “two” and the “number of mice that died” value was “one”. Besides, the “Symptomatic conditions after viral challenge (symptom score 1-5)” value (shortened to “Symptomatic conditions”) in [2] (FIG. 1) is given as “protected from disease”. Moreover, in [2], the “survival after viral challenge” value is recorded as “maximal survival”. Besides, the “DTH response (redness and swelling of ear pinna)” value in [3] was “DTH was observed”. For the same substance, in [4], the “disease symptoms (symptom score 1-5)” value was “protected from disease symptoms”; the survival / death result was “protected from disease symptoms and death”.
For the substance “DLL KNG ERI EKV EGG GSS IEF ARL (SEQ ID NO:16) (DLLKNGERIEKVEGGGSSGSSIEFARL) [JB1, conjugated polypeptide of Peptide J, GGG spacer and peptide B1 of glycoprotein B]”, in [5], the “ANTIVIRUS RESPONSE (ELISA absorbance, corrected for non-specific response)” value is reported as 0.445. Also, the DTH response result in test [6] is listed as “exhibited a DTH response”. Further, the “B1 PEPTIDE RESPONSE (ELISA absorbance, corrected for non-specific response)” value in test [7] (setting [11]) came to 0.025. In test [8], the “protection from HSV-1 challenge” value is “partial protection”, the survival is on record as 44.4% and the “survival (mice surviving of 9)” value is reported as 4 of 9.
“LHG PEI LDV PST GGG LYR TFA GNP RA (SEQ ID NO:13) (LHGPEILDVPSTGGGLYRTFAGNPRA) [LH1, conjugated polypeptide of Peptide L, GGG spacer and peptide H1]”: the “DTH response (redness and swelling of ear pinna)” value in test [1] was “Some swelling but no redness was observed for some but not all of the mice”. Moreover, the “Symptomatic conditions” value in test [2] (FIG. 1) was “more severe symptoms throughout the course of infection and death; also recorded: seemed to exacerbate the disease symptoms”. Further, the “survival after viral challenge” value in test [2] is “seemed to exacerbate the disease symptoms”. Also, in test [3], the “DTH response (redness and swelling of ear pinna)” value is reported as “not”. Also, in test [4], the “disease symptoms (symptom score 1-5)” value is “severe symptoms” and the survival / death result is on record as “death”.
Turning to “LHG PEI LDV PST GGG SSI EFA RL (SEQ ID NO:18) (LHGPEILDVPSTGGGSSIEFARL) [LB1, conjugated polypeptide of Peptide L, GGG spacer and peptide B1]”, the “B1 PEPTIDE RESPONSE (ELISA absorbance, corrected for non-specific response)” value in test [7] (setting [11]) is 0.031. Further, in test [8], the “protection from HSV-1 challenge” value was “not protected” and the “survival (mice surviving of 9)” value is on record as 1 of 9.
Turning to “LYRTFAGNPRA (SEQ ID NO:1) [H1, non-conjugated antigenic peptide, amino acid residues 322 to 332 of the ICP27 protein of HSV-1, reference compound]”, the “DTH response (redness and swelling of ear pinna)” value in test [1] is recorded as “Some swelling but no redness was observed for some but not all of the mice”. The “Symptomatic conditions” value in test [2] (FIG. 1) is “more severe symptoms throughout the course of infection and death; also recorded: seemed to exacerbate the disease symptoms”. In addition, the “survival after viral challenge” value in test [2] was “seemed to exacerbate the disease symptoms”. Moreover, the “DTH response (redness and swelling of ear pinna)” value in test [3] is given as “not”. In test [4], the “disease symptoms (symptom score 1-5)” value is “severe symptoms” and the survival / death entry is recorded as “death”. Further, in test [9], the “Antibody responses to the antigenic peptide by ELISA” value is reported as “undetectable”.
With “NGQ EEK AGV VST GLI GGG LYR TFA GNP RA (SEQ ID NO:12) (NGQEEKAGVVSTGLIGGGLYRTFAGNPRA) [GH1, conjugated polypeptide of Peptide G, GGG spacer and peptide H1]”, the “DTH response (redness and swelling of ear pinna)” value in test [1] is recorded as “Some swelling but no redness was observed for some but not all of the mice”. Besides, the “Symptomatic conditions” value in test [2] (FIG. 1) is “more severe symptoms throughout the course of infection and death; also recorded: seemed to exacerbate the disease symptoms”. Moreover, in test [2], the “survival after viral challenge” value was “seemed to exacerbate the disease symptoms”. For the same substance, in test [3], the “DTH response (redness and swelling of ear pinna)” value was “not”. Also, in test [4], the “disease symptoms (symptom score 1-5)” value is on record as “severe symptoms” and the survival / death result is listed as “death”.
Turning to “NGQ EEK AGV VST GLI GGG SSI EFA RL (SEQ ID NO:17) (NGQEEKAGVVSTGLIGGGSSIEFARL) [GB1, conjugated polypeptide of Peptide G, GGG spacer and peptide B1]”, the DTH response entry in test [6] is reported as “did not exhibit a DTH response”. For the same substance, the “B1 PEPTIDE RESPONSE (ELISA absorbance, corrected for non-specific response)” value in test [7] (vaccinated and HSV-1 challenged mice, pooled serum, 2 weeks after virus challenge) is reported as 0.017. Further, in test [7] (setting [11]), the “B1 PEPTIDE RESPONSE (ELISA absorbance, corrected for non-specific response)” value was determined as 0.035. In test [8], the “protection from HSV-1 challenge” value is given as “partial protection”, the survival was determined as 55.5% and the “survival (mice surviving of 9)” value is listed as 5 of 9.
On to “SSIEFARL (SEQ ID NO:4) [B1, non-conjugated antigenic peptide, amino acid residues 498 to 505 from glycoprotein B of HSV-1, reference compound]”, for which the DTH response result in test [6] is reported as “did not exhibit a DTH response”. In addition, the “B1 PEPTIDE RESPONSE (ELISA absorbance, corrected for non-specific response)” value in [7] (setting [11]) is reported as 0.031. Besides, in test [8], the “protection from HSV-1 challenge” value is “not protected” and the “survival (mice surviving of 9)” value is reported as 0 of 9.
